Measured values: paper PMC6041393, “A Mechanistic Model for Predicting Cell Surface Presentation of Competing Peptides by MHC Class I Molecules” (Frontiers in Immunology, 2018)
Where two headings read alike, the source gives them in different places.

Columns and labels:
B44:02 = system: B44:02; parameters: method as in PMID 26375851; conditions: B lymphoblastoid cell lines; cited from earlier work
E10 Fab = E10 Fab surface staining of peptide-pulsed RMA-S cells (flow cytometry); assay type: binding; conditions: flow cytometry surface staining of RMA-S cells pulsed with peptides
H-2Db [1] = target: T1, H-2Db (Mus musculus, UniProt P01899); experiment: Brefeldin A (BFA) decay assay of pMHC complexes at the cell surface; assay type: cell-based; parameters: endogenous in cells; host or cells: RMA-S (TAP2-deficient mouse T cell line); conditions: for t1/2 (peptide half-life of pMHC complex): BFA decay assay, RMA-S cells kept overnight at 26°C, pulsed with 20 μM peptide 1 h at 26°C, BFA added, decay at 37°C, B22 anti-H-2Db staining, flow cytometry, exponential fit; for Off-rates: converted from BFA decay half-life as log(2)/half-life (s)
T1 sequence (P01899 25-362): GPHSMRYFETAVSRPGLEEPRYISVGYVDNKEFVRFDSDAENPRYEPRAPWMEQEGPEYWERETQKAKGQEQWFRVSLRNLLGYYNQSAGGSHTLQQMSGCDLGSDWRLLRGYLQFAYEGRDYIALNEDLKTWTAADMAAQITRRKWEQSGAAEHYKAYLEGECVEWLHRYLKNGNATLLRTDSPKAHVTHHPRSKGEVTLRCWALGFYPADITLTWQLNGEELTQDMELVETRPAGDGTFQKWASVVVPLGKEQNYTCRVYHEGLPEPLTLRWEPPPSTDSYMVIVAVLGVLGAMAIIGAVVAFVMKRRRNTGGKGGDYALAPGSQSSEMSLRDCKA
T1 sequence (P01887 21-119 partner): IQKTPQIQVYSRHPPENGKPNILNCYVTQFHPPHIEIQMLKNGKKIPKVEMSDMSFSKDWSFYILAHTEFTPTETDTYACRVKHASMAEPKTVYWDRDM
Protocol: Dissociation of pMHC complexes at the cell surface was assessed by BFA decay assay as described previously ([17]). RMA-S cells were incubated overnight at 26°C to maximize MHC-I surface expression. After being washed, 5 × 10^5 cells per well of a 96-U-bottom plate were pulsed, at different time intervals, with peptides (final concentration of 20 μM) for 1 h at 26°C. After washing with medium, de novo transport of MHC-I to the cell surface was blocked by the addition of BFA, and peptide-loaded RMA-S cells were incubated at 37°C to allow decay of unstable molecules. Cells were washed in FACS buffer and stained with B22 primary monoclonal Abs (conformation sensitive anti-H-2Db MAb) and goat anti-mouse IgG-PE secondary Abs (Abcam, Cambridge, UK) to detect peptide-loaded MHC-I molecules. Samples were analyzed by flow cytometry on a Fortessa X20 flow cytometer (BD, Oxford, UK), and data were analyzed with the Diva software. MFI values were background deducted by subtracting the MFI value obtained in the DMSO control at the last time point. Half-lives and off-rate constants were then determined by fitting the curves using an exponential trend line in the Excel software (Microsoft, USA).
We experimentally measured the stability of pMHC complexes by following their decay from the cell surface over time (“BFA decay assay” in Figure 2A), and used these measurements to calculate the corresponding unbinding rates of the peptides from MHC (Table 1; Figure S3 in Supplementary Material). Finally, to incorporate the effect of IFNγ into the model, we specified a new parameter (γ) that quantifies the increased supply of MHC and tapasin following IFNγ treatment.

H-2Db [2] = target: T1, H-2Db; experiment: pMHC competition assay in co-transfected B6 fibroblasts; surface pMHC quantified with Qifikit beads, cytoplasmic peptide with mCherry beads; assay type: cell-based; conditions: for surface expression of ASN variant–H2Db: IFNγ-treated fibroblasts, E10 Fab staining; for change of surface expression of peptide–H2Db complexes with IFNγ: fibroblasts treated with IFNγ for 48 h versus untreated; for number of pMHC complexes presented on the cell surface: untreated fibroblasts, 1C3 Mab, Qifikit calibration beads
Protocol: Fibroblasts were seeded at 2 × 10^5 cells per 6 cm diameter Petri dish. When IFNγ treatment was applied, 1 µg of mouse IFNγ (Peprotech, Rocky Hill, USA) was added per Petri dish 4 h after seeding. Cells were transfected the following day with TransIT-LT1 (Mirus, Madison, USA) following the manufacturer’s recommendations using 2.5 µg of each Venus-Ub-peptide and mCherry-Ub-peptide constructs. 1 day after transfection cells were stained for 45 min on ice with primary reagents, 1C3 hybrid Mab neat supernatant, E10 purified Fab, B22, or Y3 purified Mabs to detect surface pMHC complexes. After washing, cells were incubated for 45 min with AF647-conjugated goat anti-human IgG (used after Fab primary) or goat anti-mouse (after mouse antibodies including 1C3) (Invitrogen/Molecular Probes, Eugene, USA). Flow cytometry was performed using a Fortessa X20 cytometer (BD) and the data were analyzed using FACS Diva software (BD).
mCherry flow cytometry calibration beads (Clontech/Takara, USA) were used, as recommended by the manufacturer, to calibrate the amount of mCherry molecules, equivalent to the number of peptide molecules expressed in the transfected cells. Beads were run through the flow cytometer using the same setup as for acquiring cells.
The number of […]-H2Db complexes presented on the cell surface was estimated using Qifikit beads (Dako, Glostrup, Denmark). Beads were treated as recommended by the manufacturer but stained with AF647-conjugated goat anti-mouse IgG (Invitrogen) at the same dilution as used to detect the 1C3 Mab on transfected cells. A calibration curve was drawn by plotting the MFI of the 5 peaks (x-axis) versus the lot-specific numbers of antibody molecules per bead (y-axis). The curve was then used to calculate the number of […]-H2Db complexes presented on the cell surface expressed in antibody-binding capacity units (number of primary mouse monoclonal antibodies per cell).
To establish how variation in the intracellular abundance of competing peptides influences cell surface presentation, we developed an assay in which intracellular peptide supply and pMHC cell surface abundance could be measured simultaneously (Figure 1A), assay adapted from Ref. ([35]). Furthermore, this method measures the abundance of peptides actually presented at the surface of living cells and not, as for quantitative high-throughput methods, the abundance of peptides remaining bound to MHC after biochemical purification of pMHC I complexes from cell lysates. Two fluorescent fusion proteins, Venus-ubiquitin-[…] (faster off-rate, see Table 1) and mCherry-ubiquitin-[…] (slower off-rate) are co-expressed in fibroblasts. Once expressed in the cytoplasm, the fusion proteins are cleaved by endogenous cytoplasmic ubiquitin hydrolases, releasing the peptides at an equimolecular ratio to their respective fluorescent reporter protein (Figure 1A) that can be quantified by flow cytometry ([36]) (Figure S1 in Supplementary Material). Using this system, the generation of peptides bypasses the proteasome. After translocation into the ER, peptides compete for loading onto MHC-I molecules and are transported to the cell surface where they can be quantified by flow cytometry (Figure 1A). Both fusion proteins were naturally expressed at a broad range of concentrations after transient transfection, allowing in a single experiment to compare peptide surface presentation in cells expressing low to high levels of both fusion proteins (Figure 1B). To analyze competition between both peptides, cells were partitioned into different gates according to their expression level of mCherry, reporter for the level of expression of […], and Venus, reporter for the level of […] (Figure 1B). Competition was then assessed by plotting surface expression of […]-H2Db as a function of increasing cytoplasmic expression of the […] target peptide for increasing levels of competing peptide (Venus levels 1–7 in Figure 1B). […]

H-2Dd = H-2Dd (Mus musculus, UniProt P01900); conditions: H-2Dd binding CT26 epitope; cited from earlier work
NIT-1 insulinoma cells = conditions: cited from earlier work; for enhancement of presentation by IFNγ: NIT-1 cells
Source text: IFNγ is well known to stimulate the immune system, increasing expression of MHC-I heavy chain, β2-microglobulin, subunits of the immunoproteasome (MECL1, LMP2, and LMP7), TAP, tapasin, the ER aminopeptidase associated with antigen processing (ERAAP) ([41]) and the tapasin-related protein (TAPBPR); it is produced as part of the immune response against viruses. ...

[3] = mCherry-SSLENFRAYV at around 10^4 MFI units
[4] = NIT-1 cells after IFNγ treatment

Sequence | E10 score (E10 Fab binding to peptide–H2Db complexes) (E10 Fab) | t1/2 (peptide half-life of pMHC complex) (H-2Db [1]) | Off-rates (H-2Db [1]) | further results
AETPDIKLF [human peptide derived from the RS5 protein, eluted from B44:02 complexes] |  |  |  | copies eluted from B44:02 complexes (B44:02): around 45,000 copies
ASIENLETM | 1.8 MFI/1000 | 502 min | 2.3e-05 s⁻¹ | 
ASIENMETM | 8.9 MFI/1000 | 456 min | 2.5e-05 s⁻¹ | 
ASNEAMETM | 8.2 MFI/1000 | 43 min | 0.00027 s⁻¹ | surface expression of ASN variant–H2Db (H-2Db [2]): unable to reach or remain at the cell surface at detectable levels
ASNENLETM | 4.1 MFI/1000 | 238 min | 4.9e-05 s⁻¹ | 
ASNENMETA | 14.2 MFI/1000 | 52 min | 0.00022 s⁻¹ | surface expression of ASN variant–H2Db (H-2Db [2]): unable to reach or remain at the cell surface at detectable levels
ASNENMETI | 13.1 MFI/1000 | 212 min | 5.4e-05 s⁻¹ | 
ASNENMETL | 11.8 MFI/1000 | 191 min | 6.1e-05 s⁻¹ | 
ASNENMETM | 11.5 MFI/1000 | 223 min | 5.2e-05 s⁻¹ | change of surface expression of peptide–H2Db complexes with IFNγ (H-2Db [2]): increased around fourfold; ASNENMETM expression required to inhibit SSLENFRAYV presentation by 50%, with IFNγ compared to non-IFNγ-treated cells (H-2Db [2]; [3]): around ten times more
ASNENMETV | 16.8 MFI/1000 | 132 min | 8.8e-05 s⁻¹ | surface expression of ASN variant–H2Db (H-2Db [2]): unable to reach or remain at the cell surface at detectable levels
GGPESFYCASW |  |  |  | half-life (H-2Dd): 20 min
SSLENFRAYV | 3.8 MFI/1000 | 408 min | 2.8e-05 s⁻¹ | change of surface expression of peptide–H2Db complexes with IFNγ (H-2Db [2]): increased around fourfold; cytoplasmic expression at which surface expression could be detected (H-2Db [2]; mCherry calibration beads): ~10^6 copies per cell; cytoplasmic expression in transfected cells (H-2Db [2]; mCherry calibration beads, maximum): up to 10^8 copies per cell; cell surface abundance in the absence of competitor (H-2Db [2]; [3]): around 4 × 10^4 complexes; copies expressed at the cell surface in the absence of competition (H-2Db [2]; mCherry-SSLENFRAYV at around 10^4 MFI units, printed in brackets after non-IFNγ-treated cells): 25 × 10^4 copies; number of pMHC complexes presented on the cell surface (H-2Db [2]; absence of ASNENMETM competition): up to 80,000 pMHC complexes; number of pMHC complexes presented on the cell surface (H-2Db [2]; highest level of ASNENMETM competitor): ≤ 10,000 pMHC complexes
SYFPEITHI |  |  |  | presentation, copies per cell (NIT-1 insulinoma cells; [4]): ~ 15,000 copies per cell; enhancement of presentation by IFNγ (NIT-1 insulinoma cells): 7.5 fold increase; presentation, copies per cell (NIT-1 insulinoma cells; untreated NIT-1 cells): ~ 2,000 copies per cell
VYLKTNVFK |  |  |  | presentation, copies per cell (NIT-1 insulinoma cells; [4]): 25 copies per cell; enhancement of presentation by IFNγ (NIT-1 insulinoma cells): 25 fold increase; presentation, copies per cell (NIT-1 insulinoma cells; untreated NIT-1 cells): 1 copies per cell
